One test concerns LS-174T. Kind of test: Cell cycle analysis by flow cytometry (Table 3). The test is classed as cell-based, human. Particulars: 5 μM; 3 days. On the procedure:
DNA histograms were generated on FACS II by using the DNA intercalating dye propidium iodide as described by Braylan et al. in Cytometry 2: 337-343, 1982. The percentage of cells in each cycle phase was calculated by using a PDP-11/34 computer and software as described by Neckers et al., Mol. Cell. Biol. 6: 4244-4250, 1986.
Breast (MCF-7, MDA-MB-231) and colon (LS-174T) cancer cells in log
phase (untreated control) and 3 days after treatment with 8-C1-cAMP
(10 μM), N^6 -benzyl-cAMP (35 μM), and 8-Cl-adenosine (5
were analyzed for DNA content by flow cytometric analysis as described
below. Similar results were obtained with other breast and colon cancer
^a The paired numbers were derived from two separate experiments.
A general note: In flow cytometry, cells or beads pass a laser one at a time.

Test [1] deals with c-myc protein, Molt-4 leukemic cells. Kind of test: Western blotting of c-myc protein (FIG. 9B). Type of test: cell-based, human. The note with it: three days; 8-Cl-cAMP 5 μM, DBcAMP 1 mM, 8-Cl-adenosine 5 μM. On the procedure: The cells were grown in suspension culture in RPMI 1640 medium supplemented with 10% fetal bovine serum, penicillin (50 U/ml), streptomycin (500 μg/mL), 10 mM HEPES buffer, and extra glutamine. […] Surface antigen analysis of HL-60 cells was performed by flow cytometry using a panel of monoclonal antibodies reactive with either myeloid cells or monocytic cells. Terminal deoxynucleotidyl transferase (TdT) was assayed by an immunoperoxidase method using a TdT fluorescence kit. Western blotting of c-myc protein was performed using c-myc antibody 15206D11 (Scripps Clinic and Research Foundation, LaJolla, Calif.).
M, marker proteins of known molecular weight. […] The resulting supernatants were used as cell lysates. […] ND=nondetectable.

In test [2] the test system is LS-174T colon cancer line. The test can be described thus: Growth and release from growth inhibition (FIG. 3). The test is classed as cell-based, human. The note with it: 5 μM. The procedure: 1×10^5 cells/60 mm dish were seeded, and 24 hours later (Day 0), the medium was removed and fresh medium and additives were added then and every 48 hours thereafter. […] The triplicate cell count for each experimental point never varied by more than 10%.

Test [3] relates to RI cAMP receptor protein, Molt-4 leukemic cells. The test can be described thus: Photoaffinity labelling of RI cAMP receptor protein (FIG. 9A). The test is classed as cell-based, human. Particulars: three days; 8-Cl-cAMP 5 μM, DBcAMP 1 mM, 8-Cl-adenosine 5 μM.
In the next test the test system is MCF-7. The test can be described thus: Growth of MCF-7 cells (Tables 3, 11). Particulars: Homo sapiens, MCF7, 72 h, Table 11; 8-Cl-cAMP 10 μM, 8-Cl-adenosine 5 μM, DBcAMP 500 μM; control 100. The test is classed as cell-based. The procedure:
All breast cancer cell lines were grown in IMEM supplemented with 10% fetal bovine serum, HEPES 20 mM, penicillin-streptomycin, and extra glutamine. Colon carcinoma cell lines were grown in EMEM supplemented with 10% FBS, EMEM, NEAA, HEPES 20 mM, extra glutamine, and penicillin-streptomycin. The cells were grown at 37° C. in humidified incubators in an atmosphere of 5% CO2.
For cell growth experiments, 2-3×10^5 cells/60 mm dish were seeded, and 24 hours later (Day 0), the medium was removed, and fresh medium and the additives were added then and every 48 hours thereafter. The compounds of the present invention were added using 100X concentrated stock solutions. At desired times, cell counts in duplicate were performed on a Coulter counter after harvesting the cells with gentle trypsinization.

Test [4] concerns p21 ras protein, MCF-7 cells. Kind of test: Western blotting of p21 ras protein (Table 11, FIG. 7). Type of test: cell-based, human. On the procedure: Western blotting of p21 protein was performed as described below. […] V is cell lysate from Ha-MuSV-transformed NIH3T3 clone 13-3B-4. M, marker proteins of known molecular weight.
Each lane contained 100 micrograms of protein for SDS-PAGE.
Cellular proteins present in cell extracts were separated by 12% SDS-PAGE and transferred to nitrocellulose sheets in transfer buffer (25 mM Tris, 192 mM glycine, 20% methanol, pH 7.4). Nitrocellulose sheets were washed and first incubated with 3% bovine serum albumin in NTE-NP40 (50 mM Tris-HCl, pH 7.5, 150 mM NaCl, 2 mM EDTA, 0.1% Nonidet P-40) for three hours at 37° C. and then sequentially incubated with medium containing p21 monoclonal antiserum Y13-259 directed against the Ha-MuSV-encoded p21 for sixteen hours at 4° C., rabbit anti-rat IgG for 2.5 hours in an ice water bath, and 5×10^5 cpm/ml ^125 I-protein A for one hour in an ice water bath. The nitrocellulose sheets were air dried and exposed to Kodak XAR film for 12-36 hours at -20° C. Comparison of the resulting autoradiograms with others in which normal rat serum was substituted for p21 monoclonal antibody permitted identification of p21. To provide a reference p21, cell lysates were prepared from NIH 3T3 clone 13-3B-4 that had been transfected with HaMuSV DNA.
The levels of p21 protein are expressed relative to the p21 level in the untreated control cells which is set equal to 1.0 O.D.

The subject of test [5] is breast and colon cancer lines (MCF-7, T-47D, ZR-75-1, MCF-7ras, MDA-MB-231, BT-20, HBL-100, LS-174T, WiDr, HT-29). Particulars: millimolar concentrations; previously reported; cited from earlier work.
In test [6] the test system is breast (MCF-7) and colon (LS-174T) cancer cell lines. Kind of test: Growth inhibition of breast and colon cancer cells (Table 1). The note with it: Homo sapiens, 50 μM, average (range). The test is classed as cell-based, human. On the procedure:
The compounds of the present invention were added using 100X concentrated stock solutions. At desired times, cell counts in duplicate were performed on a Coulter counter after harvesting the cells with gentle trypsinization. […] Cell counts were performed on each of three or more separate experiments, and the average values are expressed as percent growth inhibition as compared with untreated control cells. | ^a The values of percentage growth inhibition were determined from th | doseresponse curve experiments. Each value represents an average value an | range (in parentheses) obtained from three or more separate experiments. | The cell counts in duplicate were performed at day 3 and day 4 after two | treatments (day 0 and day 2) with analogs (seeding on day -1).

Test [7] relates to disseminated neuroblastomas. Particulars: combined drug regimen; cited from earlier work.
The next test has as its system YAC lymphoma cell. The note with it: mouse, in vivo; cited from earlier work.

Read-outs that look alike come from different tables or passages of the source.

In the case of `Nc1ncnc2c1nc(Cl)n2[C@@H]1O[C@H](CO)[C@@H](O)[C@H]1O` [8-Cl-adenosine], the “cell cycle phase distribution” value in the test on LS-174T was “appreciable increase of the cell population in G1 phase with a marked reduction in S-phase”. The “c-myc protein level” value in test [1] was “not observed”. In [2], the “cell growth after release from treatment” value is given as “did not resume their growth up to two weeks after the release from the treatment”; the “cell growth during treatment” value is “marked reduction in cell growth and eventually stopped replicating within three to four days”. Further, the “RI receptor protein level” value in test [3] was “not observed”. In the test on MCF-7, this molecule came in with an activity at 5 µM of 38%. Moreover, the “p21 (Relative Level)” value in test [4] (3 days, 8-Cl-cAMP 10 μM, 8-Cl-adenosine 5 μM, DBcAMP 500 μM, control = 1.0 O.D.) was 1.0 ± 0.1. Moreover, the “p21 level” value in [4] (three days) is recorded as “did not appreciably affect the p21 level”.

Take `CCCC(=O)Nc1ncnc2c1ncn2[C@@H]1O[C@@H]2COP(=O)(O)O[C@H]2[C@H]1O` [N^6 -butyryl-cAMP]: the “growth inhibition” value in test [5] is recorded as “growth inhibition only in the hormone-dependent breast cancer lines”. The inhibition (commonly the share of the control response that was lost under treatment) at 50 µM came to 0% in [6] (72 h, day 3, read-out: % Growth Inhibition, Day 3) and 0% in test [6] (96 h, day 4, read-out: % Growth Inhibition, Day 4).

Regarding `COc1ccc(Cc2nccc3cc(OC)c(OC)cc23)cc1OC` [papaverine], in test [7], the “clinical result” value is on record as “promising results”.

Turning to cholera toxin, the “inhibition of YAC lymphoma cell proliferation” value in the test on YAC lymphoma cell was “almost complete inhibition of YAC lymphoma cell proliferation for up to four days”.
